Earlier results in EP0356866A2, “Phosphorus-containing squalene synthetase inhibitors and method” (E.R. SQUIBB & SONS, INC., priority 1988, dated 1990).

Target: T1, avian liver farnesyl diphosphate synthetase (Gallus gallus, UniProt P08836)
T1 construct: host or cells: avian liver
T1 sequence (P08836 1-367): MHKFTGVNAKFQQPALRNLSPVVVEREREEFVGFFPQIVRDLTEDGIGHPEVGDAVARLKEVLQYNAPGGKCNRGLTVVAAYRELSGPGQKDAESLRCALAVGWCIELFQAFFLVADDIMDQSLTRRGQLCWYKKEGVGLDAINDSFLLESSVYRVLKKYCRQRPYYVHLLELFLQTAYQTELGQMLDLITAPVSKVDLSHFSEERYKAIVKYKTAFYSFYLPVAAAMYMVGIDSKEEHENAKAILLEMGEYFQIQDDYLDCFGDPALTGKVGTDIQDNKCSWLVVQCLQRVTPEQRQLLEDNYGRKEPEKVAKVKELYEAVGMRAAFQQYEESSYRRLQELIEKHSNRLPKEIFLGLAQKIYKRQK
Details: competitive inhibitors of the 1′-4-condensation between isopentenyl diphosphate and geranyl diphosphate

Structure (SMILES) | Ki
C=C(C)CCCP(=O)(O)CP(=O)(O)O [G] | 19 µM
CC(C)=CCCP(=O)(O)CP(=O)(O)O [H] | 71 µM
